Measured values as given in PubChem BioAssay (NCI).
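Protocol summary: plate cells (96-well), add compound at 5 concentrations, incubate 48 h, interpolate endpoints linearly. Abbreviation: GI50, concentration required for 50% inhibition of growth. TGI marks complete inhibition of growth.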

Assays:
Test in all cases: NCI tumour cell line growth inhibition, 48 h
MDA-N = test system: MDA-N
HOP-92 NSCLC = test system: HOP-92 NSCLC
ACHN renal = test system: ACHN renal
SNB-75 CNS = test system: SNB-75 CNS
U251 CNS = test system: U251 CNS
MCF7 breast = test system: MCF7 breast
SK-MEL-5 melanoma = test system: SK-MEL-5 melanoma
SN12C renal = test system: SN12C renal
CAKI-1 renal = test system: CAKI-1 renal
SF-539 CNS = test system: SF-539 CNS
BT-549 breast = test system: BT-549 breast

Row | Structure (SMILES) | TGI (MDA-N) [µM] | TGI (HOP-92 NSCLC) [µM] | TGI (ACHN renal) [µM] | TGI (SNB-75 CNS) [µM] | TGI (U251 CNS) [µM] | TGI (MCF7 breast) [µM] | TGI (SK-MEL-5 melanoma) [µM] | TGI (SN12C renal) [µM] | TGI (CAKI-1 renal) [µM] | TGI (SF-539 CNS) [µM] | TGI (BT-549 breast) [µM] | GI50 (CAKI-1 renal) [nM] | GI50 (HOP-92 NSCLC) [nM] | GI50 (ACHN renal) [nM] | GI50 (SNB-75 CNS) [nM] | GI50 (U251 CNS) [nM] | GI50 (MCF7 breast) [nM] | GI50 (SK-MEL-5 melanoma) [nM] | GI50 (BT-549 breast) [nM] | GI50 (SN12C renal) [nM]
1 | CS(=O)(=O)OCC(CCl)(CCl)CCl | > 100 | > 100 | > 100 | > 100 | > 100 | > 100 | > 100 | > 100 |  |  |  |  |  |  |  |  |  |  |  | 
2 | CC1=NN(c2cccc(Cl)c2)C2(C1=C/C=C/c1ccccc1)C(Cl)C(=O)N2c1nc2ccccc2s1 (stereo unspecified) | > 100 | > 53.2 | > 42.3 |  | 37.2 | > 100 | > 58.7 | > 100 | > 49.8 | > 86.1 | > 100 |  |  |  |  |  |  |  |  | 
3 | CCC1(CC)C(=O)NN(C(=O)c2ccccc2)C1=O | > 100 |  | > 100 | > 100 | > 100 | > 100 | > 100 | > 100 | > 100 |  | > 100 |  |  |  |  |  |  |  |  | 
4 | CCN(CC)CCN(C(=Nc1ccccc1)N1CCOCC1)c1ccccc1 |  |  |  | > 100 | > 100 | > 100 | > 100 | > 100 | > 100 | > 100 | > 100 |  |  |  |  |  |  |  |  | 
5 | CCNC(=O)Cc1nc2c(N)ncnc2n1C1OC(CO)C(O)C1O (stereo unspecified) | > 100 | > 100 | > 100 |  | > 100 | 86.5 | > 100 | > 100 | > 100 | > 100 | > 100 |  |  |  |  |  |  |  |  | 
6 | CC1=NN(c2cccc(Cl)c2)C2(SCC(=O)N2c2nc3ccccc3s2)/C1=C\c1ccccc1O (stereo unspecified) | 53.4 | 46.1 | 49 |  | 53.5 | > 100 | 32.3 |  | 57.5 | > 100 |  |  |  |  |  |  |  |  |  | 
7 | CN(C)c1ccc(C(=N/N=C2\C(=O)Nc3ccccc32)c2ccc(N(C)C)cc2)cc1 |  | 51.2 | 40.8 | 1.21 | 15.5 | 2.72 | 13.9 | 46.8 | 19.7 | 3.72 | 38.6 |  |  |  |  |  |  |  |  | 
8 | CC1CCC(C(=O)O)(C(Br)C(=O)O)CC1 (stereo unspecified) | > 100 | > 100 | > 100 | > 100 | > 100 |  | > 100 | > 100 | > 100 |  | > 100 |  |  |  |  |  |  |  |  | 
9 | Cc1nc(N)c(N2CCN([N+](=O)[O-])CC2)c(=O)[nH]1 | > 100 |  | > 100 | > 100 | > 100 | > 100 |  | > 100 |  | > 100 | > 100 |  |  |  |  |  |  |  |  | 
10 | CSC(=S)N(C)C | > 100 | > 100 |  | > 100 | > 100 | > 100 | > 100 | > 100 | > 100 | > 100 | > 100 |  |  |  |  |  |  |  |  | 
11 | O=C1c2ccccc2-c2c1c(-c1ccc(F)cc1)nc1ccc3ccccc3c21 | > 100 |  | > 100 | > 100 | > 100 | > 100 |  | > 100 | > 100 | > 100 | > 100 |  |  |  |  |  |  |  |  | 
12 | O=c1c2sc(=S)n(-c3ccc(F)cc3)c2ncn1/N=C/c1ccc(F)cc1F | > 100 | 44 | > 100 | 32.8 | 52 | > 100 | > 100 | > 100 | 32.9 |  | 37.5 |  |  |  |  |  |  |  |  | 
13 | CCOC(=O)c1ccc(NCC#CCN2CCOCC2)cc1 | > 100 | > 100 | > 100 |  | > 100 | > 100 | > 100 | > 100 |  | > 100 | > 100 |  |  |  |  |  |  |  |  | 
14 | [O-][n+]1ccccc1Sc1nc(Sc2cccc[n+]2[O-])nc(Sc2cccc[n+]2[O-])n1 |  | 3.03 | 4.06 | 18.6 | 3.3 | 2.47 | 3.07 | 3.48 | 2.11 | 4.06 | 4.96 |  |  |  |  |  |  |  |  | 
15 | COc1cccc2c1OC1(C=C2)Oc2ccccc2C(=O)N1C (stereo unspecified) | 44.9 | 98.2 | > 100 | 74.1 | > 100 | > 100 | > 100 | > 100 | > 100 |  | 88.2 |  |  |  |  |  |  |  |  | 
16 | Cc1cc(N(CCOS(C)(=O)=O)CCOS(C)(=O)=O)ccc1C=O | 26.4 | 39 |  |  | 67.4 | 32 | > 100 | 11.6 | 1.25 | 2.88 | > 100 |  |  |  |  |  |  |  |  | 
17 | Cc1ccc(-c2[nH]c(=O)n(C3OC(CO)C(O)C(O)C3O)c(=O)c2C#N)cc1 (stereo unspecified) |  | > 100 | > 100 | > 100 | > 100 | > 100 | > 100 | > 100 | > 100 | > 100 | > 100 |  |  |  |  |  |  |  |  | 
18 | CO[C@H]1/C=C(/C)CCC[C@H](C)[C@H](O)[C@@H](C)C(=O)C(C)(C)[C@@H](O)CC(=O)O[C@@H]1/C(C)=C/c1csc(C)n1 |  | > 100 | > 100 | 0.0319 | > 100 | > 100 | > 100 | > 100 | > 100 |  | > 100 | 23.8 | 38 | 55.5 | < 10 | 14.3 | < 10 | 18.6 | 49.8 | 48.8
19 | CSc1nsc(-c2ccccc2)[s+]1 |  |  | > 100 | > 100 | > 100 |  | > 100 | > 100 | > 100 | > 100 |  |  |  |  |  |  |  |  |  | 
20 | CC1OC(OC2C(OC(=O)[C@]34CCC(C)(C)C[C@H]3C3=CC[C@@H]5[C@@]6(C)CC[C@H](OC7OC(C(=O)O)C(O)C(O)C7O)C(C)(C)[C@@H]6CC[C@@]5(C)[C@]3(C)C[C@H]4O)OCC(O)C2O)C(O)C(OC2OCC(O)(CO)C2O)C1OC1OCC(O)C(O)C1O (stereo partly specified) | 16 | 26.7 | 17.4 | 31.8 | 21.4 | 18.3 | 28.1 | 11 | 20 |  | 17.3 |  |  |  |  |  |  |  |  | 
21 | COc1cc(/C=C/C(=O)CC(=O)/C=C/c2ccc(OC(=O)CCCCC3CCSS3)c(OC)c2)ccc1OC(=O)CCCCC1CCSS1 (stereo unspecified) | > 100 |  | > 100 | > 100 | > 100 | > 100 | > 100 | > 100 |  | > 100 | > 100 |  |  |  |  |  |  |  |  | 
